Assay results taken from patent publication US6346282B1, “Neuroprotective composition for the prevention and/or treatment of nervous and behavioural alterations due to anxiety states or depression, comprising acetyl-L-carnitine and hypericin” (priority 1998, dated 2002).

Legend:
rats and mice = test: Toxicology tests, single-dose oral administration; type: in vivo; conditions: 2 g/kg carnitine mixture, 2 g/kg acetyl L-carnitine, 1 g/kg Hypericum extract (approx. 0.3% hypericin), 3 mg/kg hypericin, each alone
[1] = test system: cerebral (cortex) concentrations of serotonin (5-HT) and hydroxy-indole-acetic acid (5-HIAA); test: Protective action against abnormal brain serotonin concentrations induced by fenfluramine; type: in vivo, (Sprague-Dawley) male rats; conditions: CC 400 mg/kg, AC 400 mg/kg, HE 300 mg/kg, HYP 1 mg/kg, two weeks after treatment
Description: Since changes in concentration of cerebral biogenic amines regulate both excitatory and depressive emotional behaviour states, it was decided, in view of the above-mentioned action of hypericin and Hypericum extracts at catecholamine and particularly serotoninergic receptor level and on the reuptake of serotonin itself, to evaluate changes in cerebral concentrations of serotonin after treatment with Hypericum extracts, hypericin, carnitine mixture or acetyl L-carnitine, alone or in various combinations, in conjunction with treatment with a substance such as fenfluramine, the neurotoxicity of which manifests itself also through a reduction in brain serotonin concentrations. It is well known, in fact, that fenfluramine [N-ethyl-α-methyl-m-(trifluoro-methyl)phenethylamine] exerts a neurotoxic action on the brain, which is identifiable both histologically on the basis of derangement of the cerebral serotoninergic structures and through depletion of serotonin concentrations in the brain.
The tests were conducted using a group of (Sprague-Dawley) male rats which were administered fenfluramine orally at the dose of 5 mg/kg twice daily for 5 days consecutively, either alone or at the same time, and for the same period, as a carnitine mixture (400 mg/kg) (consisting in a combination of L-carnitine+acetyl L-carnitine+propionyl L-carnitine+isovaleryl L-carnitine present in the same weight ratio to one another), or acetyl L-carnitine (400 mg/kg), or Hypericum extract (with a 0.3% hypericin content−300 mg/kg), or hypericin (1 mg/kg), or various combinations of these products at the same doses.
Two weeks after treatment, the animals were sacrificed and the cerebral cortex isolated and subjected to measurement of the cerebral content both of serotonin (5-HT) and of hydroxy-indole-acetic acid (5-HIAA) according to the method described by Wise (Wise, C. D., Anal. Biochem., 18, 94, 1967) and modified by Ricaurte (Ricaurte, G. A., J. Pharmacol. Exptl. Ther., 261, 616, 1992).

[2] = test system: motor exploration activity in the mouse; test: Exploratory activity in mice (Hole Board Test); type: in vivo
Method: This reduction is not related to sedation caused by the drug in the animal and can be offset using anxiolytic agents.
Using the technique described by Boissier (Boissier J. R., Physiol. Behav., 2. 447. 1967), tests (Hole Board Test) were conducted in order in a group of mice to ascertain whether the reduction in motor exploration activity induced in the animals by low-dose amphetamine (1 mg/kg i.p.) could be corrected by the oral administration of a carnitine mixture (consisting of a combination of L-carnitine+acetyl L-carnitine+propionyl L-carnitine+isovaleryl L carnitine in the same weight ratio to one another), or of acetyl L-carnitine, or Hypericum extract, or hypericin, or various combinations of these products.

[3] = test system: mice descending from platform; test: Platform Test in mice; type: in vivo; conditions: ten animals per group, carnitine mixture or acetyl L-carnitine 400 mg/kg, Hypericum extract 300 mg/kg, hypericin 1 mg/kg; for % of mice descending from 5 cm: platform 5 cm from the ground; for % of mice descending from 9 cm: platform 9 cm from the ground
Method: Ten animals were used per group and the percentage of animals that managed to descend from the platform was calculated. […] It was modified even more by the administration of a combination of these products plus the carnitine mixture (L-carnitine+acetyl L-carnitine+propionyl L-carnitine+isovaleryl L-carnitine present in the same weight ratio to one another, making a total dose of 400 mg/kg) or acetyl L-carnitine 400 mg/kg, neither of which modifies the animals' behaviour when administered alone.

[4] = test system: swimming-induced immobility in mice; test: Immobility induced by forced swimming; type: in vivo; conditions: last four minutes of six, oral, two administrations six hours and three hours before
Description: One of the tests regarded as being most significant for assessing the activity of antidepressant substances is the forced swimming test in the mouse, which measures the changes in swimming-induced immobility which the various test substances produce (Borsini, F., Psychopharmacology, 94, 147, 1988). In these tests, the technique described by Persolt was adopted (Persolt, R. D., Eur. J. Pharmacol., 57, 201, 1979—Persolt, R. D., Arch. Int. Pharmacology, 229, 327, 1977) using ten […] per group. The animals were placed in beakers measuring 14 cm in height and approximately 12 cm in internal diameter which were filled with water (20-22° C.) up to 7.5 cm from the rim and then left there for six minutes. The duration of the immobility was calculated during the last four minutes. The mice were considered immobile when they performed only the movements necessary to keep themselves afloat on the water.
The substances tested were administered orally in two administrations six hours and three hours prior to the start of the experiment.

[5] = test system: aggression of isolated male mice; test: Isolation-induced aggression test; type: in vivo; conditions: treated eight hours and half an hour before test, observation 180 seconds, carnitine mixture or acetyl L-carnitine 400 mg/kg, Hypericum extract 300 mg/kg, hypericin 1 mg/kg
Description: This method consists in making the mice aggressive by keeping them isolated for twenty-one days in a cage and in assessing, after treatment, the latency time needed to trigger the aggression of the isolated animal when another animal is put in the cage with it. Only animals with latency times of less than 10 seconds before attacking were included in the tests, and the time of attack was taken as the time the isolated animal bit or tried to bite the other animal introduced into the cage.
The observation time was 180 seconds and the experiment was started 30 minutes after administration of the products tested. All isolated animals were treated, both eight hours and half an hour before the test, with carnitine mixture (consisting of a combination of L-carnitine+acetyl L-carnitine+propionyl L-carnitine+isovaleryl L-carnitine in an equiponderal ratio to one another) (400 mg/kg), or with acetyl L-carnitine (400 mg/kg) or with Hypericum extract (300 mg/kg) or with hypericin (1 mg/kg), or with various combinations of these products.

[6] = product alone, oral, 5 days, FE 5 mg/kg twice daily
[7] = together with fenfluramine (FE) 5 mg/kg oral twice daily for 5 days
[8] = oral treatment together with Amphetamine 1 mg/kg i.p., 30 minutes after amphetamine, CC 400 mg/kg, AC 400 mg/kg, HE 300 mg/kg, HYP 1 mg/kg

## CC(=O)O[C@H](CC(=O)[O-])C[N+](C)(C)C [Acetyl L-carnitine, acetyl L-carnitine]
Rats and mice
  toxic effects or mortality: lack of toxic effects or mortality
[1]; [6]
  Cerebral (cortex) concentrations 5-HIAA: 0.28 ± 0.012 ng/mg tissue
  Cerebral (cortex) concentrations 5-HT: 0.35 ± 0.020 ng/mg tissue
[1]; [7]
  Cerebral (cortex) concentrations 5-HIAA: 0.15 ± 0.019 ng/mg tissue
  Cerebral (cortex) concentrations 5-HT: 0.18 ± 0.011 ng/mg tissue
[2]; [8]
  Motor exploration activity, variations compared to controls: −48
[3]
  % of mice descending from 5 cm: 70%
  % of mice descending from 9 cm: 0%
[4]
  Immobility time: 204 ± 8
[5]
  Latency time of attack: 14 ± 3 s

## CC(N)Cc1ccccc1 (stereo not drawn) [Amphetamine, amphetamine]
[2]; Amphetamine 1 mg/kg i.p. alone, 30 minutes after administration
  Motor exploration activity, variations compared to controls: −45
[2]; Amphetamine 5 mg/kg i.p. alone, 30 minutes after administration
  Motor exploration activity, variations compared to controls: +55

## CCNC(C)Cc1cccc(C(F)(F)F)c1 (stereo not drawn) [FE, N-ethyl-α-methyl-m-(trifluoro-methyl)phenethylamine]
[1]; [6]
  Cerebral (cortex) concentrations 5-HIAA: 0.14 ± 0.011 ng/mg tissue
  Cerebral (cortex) concentrations 5-HT: 0.17 ± 0.010 ng/mg tissue

## Cc1cc(O)c2c(=O)c3c(O)cc(O)c4c5c(O)cc(O)c6c(=O)c7c(O)cc(C)c8c1c2c(c34)c(c78)c65 [Hypericin, 1,3,4,6,8,13-hexahydroxy-10,11-dimethylphenanthro[1,10,9,8-opqra]perylene-7,14-dione]
Rats and mice
  toxic effects or mortality: lack of toxic effects or mortality
[1]; [6]
  Cerebral (cortex) concentrations 5-HIAA: 0.30 ± 0.030 ng/mg tissue
  Cerebral (cortex) concentrations 5-HT: 0.36 ± 0.019 ng/mg tissue
[1]; [7]
  Cerebral (cortex) concentrations 5-HIAA: 0.25 ± 0.018 ng/mg tissue
  Cerebral (cortex) concentrations 5-HT: 0.28 ± 0.020 ng/mg tissue
[2]; [8]
  Motor exploration activity, variations compared to controls: −5
[3]
  % of mice descending from 5 cm: 90%
  % of mice descending from 9 cm: 30%
[4]
  Immobility time: 195 ± 5
[5]
  Latency time of attack: 100 ± 9 s
